This is an account of results in US9187465B2, “Oxazole tyrosine kinase inhibitors” (Sareum Limited, priority 2007, dated 2015).

What all share (format): biochemical
Test [1] deals with T1, human Aurora A (Homo sapiens, UniProt O14965).
T1 construct: Histidine tag (N); host or cells: Sf9 insect cells (baculovirus)
T1 sequence (O14965 1-403): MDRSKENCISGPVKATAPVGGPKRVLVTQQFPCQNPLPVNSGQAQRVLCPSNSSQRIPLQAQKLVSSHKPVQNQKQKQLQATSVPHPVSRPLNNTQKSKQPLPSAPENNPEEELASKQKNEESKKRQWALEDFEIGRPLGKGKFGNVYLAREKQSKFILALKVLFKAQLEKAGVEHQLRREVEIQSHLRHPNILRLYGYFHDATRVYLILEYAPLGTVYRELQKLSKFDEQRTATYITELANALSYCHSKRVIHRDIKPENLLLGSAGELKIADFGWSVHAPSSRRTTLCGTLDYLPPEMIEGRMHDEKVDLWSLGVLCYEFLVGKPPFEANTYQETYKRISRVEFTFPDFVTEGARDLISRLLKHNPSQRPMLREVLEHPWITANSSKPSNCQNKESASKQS
Nature of the test: Aurora A kinase assay (DELFIA enzyme inhibition). Conditions: read-out: Aurora A IC50. The essentials:
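DELFIA read-out (time-resolved Eu fluorescence, 620 nm emission) after Neutravidin capture of biotinylated peptide substrate and antibody detection. Reaction: Ni-agarose-purified Aurora A, 30 min at room temperature, stopped with 100 mM EDTA.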

For test [2], the target named is T2, human FLT3 (Homo sapiens, UniProt P36888).
T2 construct: a construct expressing the human FLT3 (564-993) with an amino terminal GST tag; host or cells: Sf9 insect cells (baculovirus)
T2 sequence (P36888 564-993): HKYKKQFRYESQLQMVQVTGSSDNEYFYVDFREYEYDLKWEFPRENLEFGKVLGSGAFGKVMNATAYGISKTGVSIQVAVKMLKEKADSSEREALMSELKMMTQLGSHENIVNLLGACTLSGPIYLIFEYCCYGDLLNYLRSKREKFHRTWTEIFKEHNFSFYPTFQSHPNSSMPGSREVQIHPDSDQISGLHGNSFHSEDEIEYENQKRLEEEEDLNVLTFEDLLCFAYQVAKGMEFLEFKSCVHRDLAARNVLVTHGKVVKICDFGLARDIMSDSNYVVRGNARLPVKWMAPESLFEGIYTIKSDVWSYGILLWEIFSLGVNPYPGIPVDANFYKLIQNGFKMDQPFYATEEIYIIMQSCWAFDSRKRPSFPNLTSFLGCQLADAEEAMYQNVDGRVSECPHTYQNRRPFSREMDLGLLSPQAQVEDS
As to the kind of experiment: FLT3 kinase assay (DELFIA enzyme inhibition). The essentials: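 GST-tagged human FLT3 (564-993), expressed in sf9 cells, phosphorylated a biotinylated Gastrin Precursor (Tyr 87)-derived peptide for 30 min at room temperature before EDTA stop. The captured peptide was detected by Eu-labelled anti-phosphotyrosine DELFIA time-resolved fluorescence. IC50 was derived from % inhibition curves.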

The target of test [3] is T3, human FLT4 (Homo sapiens, UniProt P35916).
T3 construct: a construct expressing the human FLT4 (789-1207) with an amino terminal GST tag; host or cells: Sf9 insect cells (baculovirus)
As to the kind of experiment: FLT4 kinase assay (DELFIA enzyme inhibition). Conditions: read-out: FLT4 IC50. The essentials:
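GST-tagged human FLT4 (789-1207) from Sf9 cells phosphorylates a biotinylated MET (Tyr1253)-derived peptide for 30 min at room temperature, stopped with EDTA. Phosphopeptide is captured on Neutravidin and detected with Eu-labelled anti-phosphotyrosine antibody by time-resolved fluorescence; IC50 from % inhibition curves.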

T3 sequence (P35916 789-1207): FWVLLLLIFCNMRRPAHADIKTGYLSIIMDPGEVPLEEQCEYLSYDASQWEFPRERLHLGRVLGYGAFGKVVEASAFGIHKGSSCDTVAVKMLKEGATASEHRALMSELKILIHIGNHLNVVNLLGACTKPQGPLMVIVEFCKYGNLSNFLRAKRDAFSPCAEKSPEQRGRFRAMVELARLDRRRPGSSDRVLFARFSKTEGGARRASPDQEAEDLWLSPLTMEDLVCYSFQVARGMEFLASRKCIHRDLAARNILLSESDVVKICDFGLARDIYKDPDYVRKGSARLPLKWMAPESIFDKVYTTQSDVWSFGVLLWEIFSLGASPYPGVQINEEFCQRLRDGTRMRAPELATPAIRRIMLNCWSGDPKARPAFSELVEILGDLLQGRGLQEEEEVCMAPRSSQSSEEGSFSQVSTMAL

The IC50 is the concentration needed to halve the response being measured. For the molecule `NC(=O)c1nc(-c2c(F)cccc2F)oc1-c1ccc(OCCN2CCC[C@@H]2CO)cc1` [Example S-6, (R)-2-(2,6-difluorophenyl)-5-(4-(2-(2-(hydroxymethyl)pyrrolidin-1-yl)ethoxy)phenyl)oxazole-4-carboxamide], the IC50 in test [1], in test [2] and in test [3] was less than 10 µM each time.

`NC(=O)c1nc(-c2c(F)cccc2F)oc1-c1ccc(OCCN2CCN(CCO)CC2)cc1` [Example S-7, 2-(2,6-difluorophenyl)-5-(4-(2-(4-(2-hydroxyethyl)piperazin-1-yl)ethoxy)phenyl)oxazole-4-carboxamide]: the half-inhibitory concentration (IC50) in test [1], in test [2] and in test [3] was less than 10 µM throughout.

In the case of `CN(CCO)CCOc1ccc(-c2oc(-c3c(F)cccc3F)nc2C(N)=O)cc1` [Example S-8, 2-(2,6-difluorophenyl)-5-(4-(2-((2-hydroxyethyl)(methyl)amino)ethoxy)phenyl)oxazole-4-carboxamide], the IC50 in test [1], in test [2] and in test [3] was less than 10 µM in each case.

For `NC(=O)c1nc(-c2c(F)cccc2F)oc1-c1ccc(OCCN2CCNC(=O)C2)cc1` [Example S-9, 2-(2,6-difluorophenyl)-5-(4-(2-(3-oxopiperazin-1-yl)ethoxy)phenyl)oxazole-4-carboxamide], the IC50 in test [1], in test [2] and in test [3] was less than 10 µM each time.

`NC(=O)c1nc(-c2c(F)cccc2F)oc1-c1ccc(OCCN2CCC(C(N)=O)CC2)cc1` [Example S-10, 1-(2-(4-(4-carbamoyl-2-(2,6-difluorophenyl)oxazol-5-yl)phenoxy)ethyl)piperidine-4-carboxamide]: the IC50 in test [1], in test [2] and in test [3] was less than 10 µM each time.

Regarding `CN(CCOc1ccc(-c2oc(-c3c(F)cccc3F)nc2C(N)=O)cc1)Cc1ccccc1` [Example S-11, 5-(4-(2-(benzyl(methyl)amino)ethoxy)phenyl)-2-(2,6-difluorophenyl)oxazole-4-carboxamide], the IC50 in test [1] is less than 100 µM; in test [2] it was less than 10 µM; in test [3] it was less than 10 µM.

In the case of `NC(=O)c1nc(-c2c(F)cccc2F)oc1-c1ccc(OCCCN2CCCCC2)cc1` [Example S-12, 2-(2,6-difluorophenyl)-5-(4-(3-(piperidin-1-yl)propoxy)phenyl)oxazole-4-carboxamide], the half-inhibitory concentration (IC50) in test [1], in test [2] and in test [3] was less than 10 µM in each case.

`NC(=O)c1nc(-c2c(F)cccc2F)oc1-c1ccc(OCCCN2CCOCC2)cc1` [Example S-13, 2-(2,6-difluorophenyl)-5-(4-(3-morpholinopropoxy)phenyl)oxazole-4-carboxamide]: the IC50 in test [1], in test [2] and in test [3] was less than 10 µM throughout.

With `NC(=O)c1nc(-c2c(F)cccc2F)oc1-c1ccc(OCC(O)CN2CCCCC2)cc1` (stereo not drawn) [Example T-1, 2-(2,6-difluorophenyl)-5-(4-(2-hydroxy-3-(piperidin-1-yl)propoxy)phenyl)oxazole-4-carboxamide], the IC50 in test [1], in test [2] and in test [3] was less than 10 µM each time.

Regarding `NC(=O)c1nc(-c2c(F)cccc2F)oc1-c1ccc(OCC(O)CN2CCOCC2)cc1` (stereo not drawn) [Example T-2, 2-(2,6-difluorophenyl)-5-(4-(2-hydroxy-3-morpholinopropoxy)phenyl)oxazole-4-carboxamide], the IC50 in test [1], in test [2] and in test [3] was less than 10 µM in each case.

Turning to `CN1CCN(CC(O)COc2ccc(-c3oc(-c4c(F)cccc4F)nc3C(N)=O)cc2)CC1` (stereo not drawn) [Example T-3, 2-(2,6-difluorophenyl)-5-(4-(2-hydroxy-3-(4-methylpiperazin-1-yl)propoxy)phenyl)oxazole-4-carboxamide], the IC50 in test [1], in test [2] and in test [3] was less than 10 µM throughout.

As to `NC(=O)c1nc(-c2c(F)cccc2F)oc1-c1ccc(OCC(O)CN2CCC(O)CC2)cc1` (stereo not drawn) [Example T-4, 2-(2,6-difluorophenyl)-5-(4-(2-hydroxy-3-(4-hydroxypiperidin-1-yl)propoxy)phenyl)oxazole-4-carboxamide], the 50% inhibitory concentration (IC50) in test [1], in test [2] and in test [3] was less than 10 µM in each case.

As for `NC(=O)c1nc(-c2c(F)cccc2F)oc1Nc1ccc(C(=O)O)cc1` [Example U-1, 4-(4-carbamoyl-2-(2,6-difluorophenyl)oxazol-5-ylamino)benzoic acid], the 50% inhibitory concentration (IC50) in test [1], in test [2] and in test [3] was less than 10 µM each time.

For `NC(=O)c1nc(-c2c(F)cccc2F)oc1Nc1ccc(C(=O)NCC2CN(Cc3ccccc3)CCO2)cc1` (stereo not drawn) [Example U-5, 5-(4-(((4-benzylmorpholin-2-yl)methyl)carbamoyl)phenylamino)-2-(2,6-difluorophenyl)oxazole-4-carboxamide], the half-maximal inhibitory concentration (IC50) in test [1], in test [2] and in test [3] was less than 10 µM throughout.

Consider `NC(=O)c1nc(-c2c(F)cccc2F)oc1Nc1ccc(C(=O)N2CCC[C@@H]2CO)cc1` [Example U-12, (R)-2-(2,6-difluorophenyl)-5-(4-(2-(hydroxymethyl)pyrrolidine-1-carbonyl)phenylamino)oxazole-4-carboxamide], for which the half-inhibitory concentration (IC50) in test [1], in test [2] and in test [3] was less than 10 µM each time.

Consider `NC(=O)c1nc(-c2c(F)cccc2F)oc1Nc1ccc(C(=O)N2CCC[C@H]2CO)cc1` [Example U-13, (S)-2-(2,6-difluorophenyl)-5-(4-(2-(hydroxymethyl)pyrrolidine-1-carbonyl)phenylamino)oxazole-4-carboxamide], for which the half-maximal inhibitory concentration (IC50) in test [1], in test [2] and in test [3] was less than 10 µM throughout.

On to `NC(=O)c1nc(-c2c(F)cccc2F)oc1Nc1ccc(C(=O)N2CCCCC2CO)cc1` (stereo not drawn) [Example U-14, 2-(2,6-difluorophenyl)-5-(4-(2-(hydroxymethyl)piperidine-1-carbonyl)phenylamino) oxazole-4-carboxamide], for which the half-maximal inhibitory concentration (IC50) in test [1], in test [2] and in test [3] was less than 10 µM throughout.

`NC(=O)c1nc(-c2c(F)cccc2F)oc1Nc1ccc(C(=O)N2CCCC(O)C2)cc1` (stereo not drawn) [Example U-15, 2-(2,6-difluorophenyl)-5-(4-(3-hydroxypiperidine-1-carbonyl)phenylamino)oxazole-4-carboxamide]: the concentration for half-maximal inhibition (IC50) in test [1], in test [2] and in test [3] was less than 10 µM in each case.

For the molecule `NC(=O)c1nc(-c2c(F)cccc2F)oc1Nc1ccc(C(=O)NCCO)cc1` [Example U-16, 5-(4-((2-hydroxyethyl)carbamoyl)phenylamino)-2-(2,6-difluorophenyl)oxazole-4-carboxamide], the 50% inhibitory concentration (IC50) in test [1], in test [2] and in test [3] was less than 10 µM in each case.

In the case of `NC(=O)c1nc(-c2c(F)cccc2F)oc1Nc1ccc(C(=O)NCCCO)cc1` [Example U-17, 5-(4-((3-hydroxypropyl)carbamoyl)phenylamino)-2-(2,6-difluorophenyl)oxazole-4-carboxamide], the IC50 in test [1], in test [2] and in test [3] was less than 10 µM throughout.

Consider `CN1CCC(NC(=O)c2ccc(Nc3oc(-c4c(F)cccc4F)nc3C(N)=O)cc2)CC1` [Example U-18, 5-(4-((1-methylpiperidin-4-yl)carbamoyl)phenylamino)-2-(2,6-difluorophenyl) oxazole-4-carboxamide], for which the half-maximal inhibitory concentration (IC50) in test [1], in test [2] and in test [3] was less than 10 µM throughout.

For `NC(=O)c1nc(-c2c(F)cccc2F)oc1Nc1ccc(C(=O)N2CCOCC2CO)cc1` (stereo not drawn) [Example U-19, 2-(2,6-difluorophenyl)-5-(4-(3-(hydroxymethyl)morpholine-4-carbonyl)phenylamino)oxazole-4-carboxamide], the concentration for half-maximal inhibition (IC50) in test [1], in test [2] and in test [3] was less than 10 µM in each case.
